Assay results from PubChem BioAssay (NCI).
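Step 1: Grow cells in 96-well plates. Step 2: Expose to compound for 48 hours at 5 concentrations. Step 3: Interpolate endpoints linearly; if unreached, use highest concentration. Here, GI50 denotes the concentration required for 50% inhibition of growth. TGI is the concentration that stops growth completely.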

Assays:
Test in all cases: NCI tumour cell line growth inhibition, 48 h
HCC-2998 colon = system: HCC-2998 colon
NCI-H226 lung = system: NCI-H226 lung
MOLT-4 leukemia = system: MOLT-4 leukemia
MALME-3M melanoma = system: MALME-3M melanoma
A498 renal = system: A498 renal
MDA-MB-231 breast = system: MDA-MB-231 breast
HCT-116 colon = system: HCT-116 colon
SK-MEL-5 melanoma = system: SK-MEL-5 melanoma
KM12 colon = system: KM12 colon
T-47D breast = system: T-47D breast
UACC-62 melanoma = system: UACC-62 melanoma
CCRF-CEM leukemia = system: CCRF-CEM leukemia
SNB-19 CNS = system: SNB-19 CNS
NCI/ADR-RES ovarian = system: NCI/ADR-RES ovarian
OVCAR-5 ovarian = system: OVCAR-5 ovarian
NCI-H23 lung = system: NCI-H23 lung
SNB-75 CNS = system: SNB-75 CNS
OVCAR-3 ovarian = system: OVCAR-3 ovarian
TK-10 renal = system: TK-10 renal
HS 578T breast = system: HS 578T breast
PC-3 prostate = system: PC-3 prostate
MDA-MB-435 = system: MDA-MB-435
K-562 leukemia = system: K-562 leukemia
EKVX NSCLC = system: EKVX NSCLC
U251 CNS = system: U251 CNS
SF-539 CNS = system: SF-539 CNS
SK-OV-3 ovarian = system: SK-OV-3 ovarian
BT-549 breast = system: BT-549 breast
SK-MEL-28 melanoma = system: SK-MEL-28 melanoma
NCI-H522 lung = system: NCI-H522 lung
IGROV1 ovarian = system: IGROV1 ovarian
HCT-15 colon = system: HCT-15 colon
A549 NSCLC = system: A549 NSCLC
SF-268 CNS = system: SF-268 CNS
SR leukemia = system: SR leukemia
LOX IMVI melanoma = system: LOX IMVI melanoma
SN12C renal = system: SN12C renal
UACC-257 melanoma = system: UACC-257 melanoma
NCI-H460 lung = system: NCI-H460 lung
UO-31 renal = system: UO-31 renal
DU-145 prostate = system: DU-145 prostate
HOP-62 NSCLC = system: HOP-62 NSCLC
SF-295 CNS = system: SF-295 CNS
SW-620 colon = system: SW-620 colon
OVCAR-8 ovarian = system: OVCAR-8 ovarian
HT29 colon = system: HT29 colon
COLO 205 colon = system: COLO 205 colon
SK-MEL-2 melanoma = system: SK-MEL-2 melanoma
HL-60(TB) leukemia = system: HL-60(TB) leukemia
ACHN renal = system: ACHN renal
OVCAR-4 ovarian = system: OVCAR-4 ovarian
M14 melanoma = system: M14 melanoma
MCF7 breast = system: MCF7 breast
RPMI-8226 leukemia = system: RPMI-8226 leukemia
CAKI-1 renal = system: CAKI-1 renal
786-0 renal = system: 786-0 renal
HOP-92 NSCLC = system: HOP-92 NSCLC

## Cc1cc2c(cc1Cl)SC(C(=O)c1ccc(Cl)c(Cl)c1)NS2(=O)=O (centres undefined)
HCC-2998 colon
  GI50: 19.8 µM
  TGI: 35.1 µM
NCI-H226 lung
  GI50: 49.9 µM
  TGI: > 100 µM
MOLT-4 leukemia
  GI50: 29.5 µM
  TGI: 64.4 µM
MALME-3M melanoma
  GI50: 45.3 µM
  TGI: > 100 µM
A498 renal
  GI50: 70.5 µM
  TGI: > 100 µM
MDA-MB-231 breast
  GI50: 36.7 µM
  TGI: > 100 µM
HCT-116 colon
  GI50: 21.9 µM
  TGI: 40.8 µM
SK-MEL-5 melanoma
  GI50: 42.3 µM
  TGI: > 100 µM
KM12 colon
  GI50: 30.9 µM
  TGI: 80.9 µM
T-47D breast
  GI50: 19.9 µM
  TGI: 49.9 µM
UACC-62 melanoma
  GI50: 22 µM
  TGI: 42.9 µM
CCRF-CEM leukemia
  GI50: 27.9 µM
  TGI: 61.2 µM
SNB-19 CNS
  GI50: 35 µM
  TGI: > 100 µM
NCI/ADR-RES ovarian
  GI50: 38.6 µM
  TGI: > 100 µM
OVCAR-5 ovarian
  GI50: 49.2 µM
  TGI: > 100 µM
NCI-H23 lung
  GI50: 34.1 µM
  TGI: 89.5 µM
SNB-75 CNS
  GI50: 31.3 µM
  TGI: 81.1 µM
OVCAR-3 ovarian
  GI50: 40.7 µM
  TGI: > 100 µM
TK-10 renal
  GI50: 84.7 µM
  TGI: > 100 µM
HS 578T breast
  GI50: 70 µM
  TGI: > 100 µM
PC-3 prostate
  GI50: 32.5 µM
  TGI: > 100 µM
MDA-MB-435
  GI50: 26.7 µM
  TGI: 65.6 µM
K-562 leukemia
  GI50: 35.6 µM
  TGI: > 100 µM
EKVX NSCLC
  GI50: 37.5 µM
  TGI: > 100 µM
U251 CNS
  GI50: 34.4 µM
  TGI: > 100 µM
SF-539 CNS
  GI50: 19.8 µM
  TGI: 42.2 µM
SK-OV-3 ovarian
  GI50: 33.7 µM
  TGI: 91.4 µM
BT-549 breast
  GI50: 29.8 µM
  TGI: 56.5 µM
SK-MEL-28 melanoma
  GI50: 30.4 µM
  TGI: 88.9 µM
NCI-H522 lung
  GI50: 28.9 µM
  TGI: 74.4 µM
IGROV1 ovarian
  GI50: 40.9 µM
  TGI: > 100 µM
HCT-15 colon
  GI50: 28.7 µM
  TGI: 76.1 µM
A549 NSCLC
  GI50: 45.2 µM
  TGI: > 100 µM
SF-268 CNS
  GI50: 33.6 µM
  TGI: 88.6 µM
SR leukemia
  GI50: 31.4 µM
  TGI: 81.8 µM
LOX IMVI melanoma
  GI50: 22.6 µM
  TGI: 48.7 µM
SN12C renal
  GI50: 32 µM
  TGI: 86.4 µM
UACC-257 melanoma
  GI50: 67.2 µM
  TGI: > 100 µM
NCI-H460 lung
  GI50: 23.5 µM
  TGI: 50.7 µM
UO-31 renal
  GI50: 42.2 µM
  TGI: > 100 µM
DU-145 prostate
  GI50: 32.8 µM
  TGI: 87.6 µM
HOP-62 NSCLC
  GI50: 39.3 µM
  TGI: > 100 µM
SF-295 CNS
  GI50: 34.9 µM
  TGI: > 100 µM
SW-620 colon
  GI50: 27.6 µM
  TGI: 72.9 µM
OVCAR-8 ovarian
  GI50: 44.5 µM
  TGI: > 100 µM
HT29 colon
  GI50: 36.1 µM
  TGI: > 100 µM
COLO 205 colon
  GI50: 21 µM
  TGI: 44 µM
SK-MEL-2 melanoma
  GI50: 40.2 µM
  TGI: > 100 µM
HL-60(TB) leukemia
  GI50: 39.8 µM
  TGI: 80.6 µM
ACHN renal
  GI50: 29.8 µM
  TGI: 85.6 µM
OVCAR-4 ovarian
  GI50: 27.1 µM
  TGI: 71.5 µM
M14 melanoma
  GI50: 43.9 µM
  TGI: > 100 µM
MCF7 breast
  GI50: 21.2 µM
  TGI: 47.3 µM
RPMI-8226 leukemia
  GI50: 24.6 µM
  TGI: 56 µM
CAKI-1 renal
  GI50: 97.4 µM
  TGI: > 100 µM
786-0 renal
  GI50: 37.3 µM
  TGI: 97 µM
HOP-92 NSCLC
  GI50: 25.2 µM
  TGI: 65.9 µM
